Test results from patent US9938562B2, “Naphthalene derived chromogenic enzyme substrates” (Glycosynth Limited, priority 2013, dated 2018).
Counter-ions that a name gives are not always drawn. Like-named read-outs stand apart in the source and are kept apart here.

Columns and labels:
[1] = test system: Serratia marcescens NCTC 10211; assay: Agar plate multi-point inoculation, colour; assay type: cell-based
[2] = test system: Listeria monocytogenes NCTC 11994; assay: Agar plate multi-point inoculation, colour; assay type: cell-based
[3] = test system: Morganella morganii 462403 (wild); assay: Agar plate multi-point inoculation, colour; assay type: cell-based; settings: Columbia agar, FAC 500 mg/L, substrate 300 mg/L, 37° C. 18 h in air
[4] = test system: Enterobacter cloacae NCTC 11936; assay: Agar plate multi-point inoculation, colour; assay type: cell-based
[5] = test system: Bacillus subtilis NCTC 9372; assay: Agar plate multi-point inoculation, colour; assay type: cell-based
[6] = test system: Burkholderia cepacia 1222; assay: Agar plate multi-point inoculation, colour; assay type: cell-based; settings: Columbia agar, FAC 500 mg/L, substrate 300 mg/L, 37° C. 18 h in air
[7] = test system: Pseudomonas aeruginosa NCTC 10662; assay: Agar plate multi-point inoculation, colour; assay type: cell-based
[8] = test system: Candida albicans ATCC 90028; assay type: cell-based; settings: Columbia agar, FAC 500 mg/L, substrate 300 mg/L, 37° C. 18 h in air
[9] = test system: Staphylococcus aureus NCTC 6571; assay: Agar plate multi-point inoculation, colour; assay type: cell-based
[10] = test system: Providencia rettgeri NCTC 7475; assay: Agar plate multi-point inoculation, colour; assay type: cell-based
[11] = test system: Candida glabrata NCPF 3943; assay: Agar plate multi-point inoculation, colour; assay type: cell-based
[12] = test system: Staphylococcus epidermidis NCTC 11047; assay: Agar plate multi-point inoculation, colour; assay type: cell-based
[13] = test system: Escherichia coli NCTC 10418; assay: Agar plate multi-point inoculation, colour; assay type: cell-based
[14] = test system: Steptococcus pyogenes NCTC 8306; assay: Agar plate multi-point inoculation, colour; assay type: cell-based
[15] = test system: Enterococcus faecium NCTC 7171; assay: Agar plate multi-point inoculation, colour; assay type: cell-based
[16] = test system: Citrobacter freundii NCTC 9750 or 46262; assay: Agar plate multi-point inoculation, colour; assay type: cell-based; settings: Columbia agar, FAC 500 mg/L, substrate 300 mg/L, 37° C. 18 h in air
[17] = test system: Yersinia enterocolitica NCTC 11176; assay: Agar plate multi-point inoculation, colour; assay type: cell-based; settings: Columbia agar, FAC 500 mg/L, substrate 300 mg/L, 37° C. 18 h in air
[18] = test system: Enterococcus faecalis NCTC 775; assay: Agar plate multi-point inoculation, colour; assay type: cell-based
[19] = test system: Salmonella typhimurium NCTC 74; assay: Agar plate multi-point inoculation, colour; assay type: cell-based
[20] = test system: Staphylococcus aureus (MRSA) NCTC 11939; assay: Agar plate multi-point inoculation, colour; assay type: cell-based; settings: for Colour: Columbia agar, FAC 500 mg/L, substrate 300 mg/L, 37° C. 18 h in air
[21] = test system: range of microorganisms; assay: Agar plate evaluation with a range of microorganisms (hue, diffusion, background); assay type: cell-based; settings: agar plates with FAC
[22] = Columbia agar, FAC 500 mg/L, substrate 300 mg/L, 37° C. 18 h in air

Compound	melting point	Colour [1, 22]	Colour [2, 22]	Colour [3]	Colour [4, 22]	Colour [5, 22]	Colour [6]	Colour [7, 22]	Colour [8]	Colour [9, 22]	Colour [10, 22]	Colour [11, 22]	Colour [12, 22]	Colour [13, 22]	Colour [14, 22]	Colour [15, 22]	Colour [16]	Colour [17]	Colour [18, 22]	Colour [20]	other results
O=C(O)C1OC(Oc2cc3ccccc3cc2O)C(O)C(O)C1O (as salt: salt) [Compound 12a, DHN-β-D-glucuronide CHA Salt]	223 to 224 °C																				
O=C(O)C1OC(Oc2cc3cc(Br)c(Br)cc3cc2O)C(O)C(O)C1O (as salt: salt) [Compound 29, 6,7-Dibromo-DHN-β-D-glucuronide CHA Salt]	221 to 224 °C																				
OC[C@H]1O[C@@H](Oc2cc3ccccc3cc2O)C(O)C1O (stereo partly drawn) [Compound 2, DHN-β-D-ribofuranoside]	181 to 182 °C	++	−	++	++	−	−	−	−	+	++	−	−	++	−	−	++	−	−	+	hydrolysis of substrate ([9]; agar plates with FAC): able to hydrolyse; hydrolysis of substrate ([12]; agar plates with FAC): unaffected; Colour [19, 22]: ++; hydrolysis of substrate ([20]; agar plates with FAC): able to hydrolyse
OCC1OC(Oc2cc3ccccc3cc2O)C(O)C(O)C1O [Compound 6, DHN-α-D-glucopyranoside]	164 to 166 °C	++	++	−	++	++	−	−	−	+/−	−	−	+	+	++	Tr.	−	Tr.	++	+/−	Colour [19, 22]: −
OCC1OC(Oc2cc3ccccc3cc2O)C(O)C(O)C1O [Compound 10, DHN-α-D-galactopyranoside]		−	−	−	Tr.	−	−	−	−	−	−	−	−	Tr.	−	−	−	−	−	−	Colour [19, 22]: −
O=C([O-])C1OC(Oc2cc3ccccc3cc2O)C(O)C(O)C1O.[Na+] [Compound 12b, DHN-β-D-glucuronide Sodium Salt]	53 to 55 °C	−	−	−	−	−	−	−	−	−	−	−	−	++	−	−	−	−	−	−	hydrolysis of substrate (judged by colour) ([13]; agar plates containing FAC): strong colour; Colour [19, 22]: −
CC(=O)NC1C(Oc2cc3ccccc3cc2O)OC(CO)C(O)C1O [Compound 15, DHN-N-acetyl-β-D-glucosaminide]	204 to 205 °C	++	++	−	+/−	−	−	−	−	−	−	−	−	−	++	++	−	+	++	−	Colour [19, 22]: −
O=[N+]([O-])c1c(O)c(O[C@@H]2O[C@H](CO)C(O)C2O)cc2ccccc12 (stereo partly drawn) [Compound 19, 1-Nitro-DHN-β-D-ribofuranoside]	> 170 °C (dec.)																				colour (hue) after hydrolysis [21]: more distinctly red
OCC1OC(Oc2cc3cc(Br)c(Br)cc3cc2O)C(O)C(O)C1O [Compound 25, 6,7-Dibromo-DHN-β-D-galactopyranoside]	256 to 257 °C	+	+/−	−	−	−	+/−	−	−	−	−	−	−	++	−	+/−	+	−	Tr.	−	Colour [19, 22]: −
OCC1OC(Oc2cc3cc(Br)c(Br)cc3cc2O)C(O)C(O)C1O [Compound 27, 6,7-Dibromo-DHN-β-D-glucopyranoside]		++	+/−	−	−	+	+	−	−	Tr.	++	−	−	Tr.	−	+/−	+	−	Tr.	Tr.	Colour [19, 22]: −
O=C(O)C1OC(Oc2cc3cc(Br)c(Br)cc3cc2O)C(O)C(O)C1O [Compound 29, 6,7-Dibromo-DHN-β-D-glucuronide CHA Salt]				−			−		−								−	−		−	Colour [1]: −; Colour [2]: −; Colour [4]: −; Colour [5]: −; Colour [7]: −; Colour [9]: −; Colour [10]: −; Colour [11]: −; Colour [12]: −; Colour [13]: ++; Colour [14]: −; Colour [15]: −; Colour [18]: −; Colour [19]: −
